PubChem BioAssay (NCI)
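Where inhibition never reached the appropriate level, the endpoint shown equals the highest concentration tested. Otherwise, values were interpolated linearly from a five-concentration, 48-hour dose response in 96-well plates. Here, GI50 denotes the concentration required for 50% inhibition of growth. TGI: concentration producing complete growth inhibition.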

Assays:
Test in all cases: NCI anticancer screen, dose series, 48 h
786-0 renal = test system: 786-0 renal
A498 renal = test system: A498 renal
A549 NSCLC = test system: A549 NSCLC
ACHN renal = test system: ACHN renal
BT-549 breast = test system: BT-549 breast
CAKI-1 renal = test system: CAKI-1 renal
CCRF-CEM leukemia = test system: CCRF-CEM leukemia
COLO 205 colon = test system: COLO 205 colon
DU-145 prostate = test system: DU-145 prostate
EKVX NSCLC = test system: EKVX NSCLC
HCC-2998 colon = test system: HCC-2998 colon
HCT-116 colon = test system: HCT-116 colon
HCT-15 colon = test system: HCT-15 colon
HL-60(TB) leukemia = test system: HL-60(TB) leukemia
HOP-62 NSCLC = test system: HOP-62 NSCLC
HOP-92 NSCLC = test system: HOP-92 NSCLC
HS 578T breast = test system: HS 578T breast
HT29 colon = test system: HT29 colon
IGROV1 ovarian = test system: IGROV1 ovarian
K-562 leukemia = test system: K-562 leukemia
KM12 colon = test system: KM12 colon
LOX IMVI melanoma = test system: LOX IMVI melanoma
M14 melanoma = test system: M14 melanoma
MALME-3M melanoma = test system: MALME-3M melanoma
MCF7 breast = test system: MCF7 breast
MDA-MB-231 breast = test system: MDA-MB-231 breast
MDA-MB-435 = test system: MDA-MB-435
MDA-MB-468 breast = test system: MDA-MB-468 breast
MOLT-4 leukemia = test system: MOLT-4 leukemia
NCI-H226 lung = test system: NCI-H226 lung
NCI-H23 lung = test system: NCI-H23 lung
NCI-H460 lung = test system: NCI-H460 lung
NCI-H522 lung = test system: NCI-H522 lung
OVCAR-3 ovarian = test system: OVCAR-3 ovarian
OVCAR-4 ovarian = test system: OVCAR-4 ovarian
OVCAR-5 ovarian = test system: OVCAR-5 ovarian
OVCAR-8 ovarian = test system: OVCAR-8 ovarian
PC-3 prostate = test system: PC-3 prostate
RPMI-8226 leukemia = test system: RPMI-8226 leukemia
RXF 393 renal = test system: RXF 393 renal
SF-268 CNS = test system: SF-268 CNS
SF-295 CNS = test system: SF-295 CNS
SF-539 CNS = test system: SF-539 CNS
SK-MEL-2 melanoma = test system: SK-MEL-2 melanoma
SK-MEL-28 melanoma = test system: SK-MEL-28 melanoma
SK-MEL-5 melanoma = test system: SK-MEL-5 melanoma
SK-OV-3 ovarian = test system: SK-OV-3 ovarian
SNB-19 CNS = test system: SNB-19 CNS
SNB-75 CNS = test system: SNB-75 CNS
SR leukemia = test system: SR leukemia
SW-620 colon = test system: SW-620 colon
T-47D breast = test system: T-47D breast
TK-10 renal = test system: TK-10 renal
U251 CNS = test system: U251 CNS
UACC-257 melanoma = test system: UACC-257 melanoma
UACC-62 melanoma = test system: UACC-62 melanoma
UO-31 renal = test system: UO-31 renal

With `N#C[Se]CC(=O)Nc1cccc(C(F)(F)F)c1` the GI50 (786-0 renal) was 2.25 µM, the TGI (786-0 renal) was 4.92 µM and the GI50 (A498 renal) was 3.95 µM. For the same molecule, the TGI (A498 renal) was 17.7 µM, the GI50 (A549 NSCLC) was 1.87 µM and the TGI (A549 NSCLC) was 4.27 µM. It also gave a GI50 (ACHN renal) of 3.29 µM, a TGI (ACHN renal) of 9.98 µM and a GI50 (BT-549 breast) of 1.57 µM. The TGI (BT-549 breast) was 3.05 µM, the GI50 (CAKI-1 renal) was 2.23 µM and the TGI (CAKI-1 renal) was 4.77 µM. For the same molecule, the GI50 (CCRF-CEM leukemia) was 4.34 µM, the TGI (CCRF-CEM leukemia) was 34.6 µM and the GI50 (COLO 205 colon) was 10.1 µM. For the same molecule, the TGI (COLO 205 colon) was 24.3 µM, the GI50 (DU-145 prostate) was 1.9 µM and the TGI (DU-145 prostate) was 4.32 µM. For the same molecule, the GI50 (EKVX NSCLC) was 1.46 µM, the TGI (EKVX NSCLC) was 2.94 µM and the GI50 (HCC-2998 colon) was 13.7 µM. The TGI (HCC-2998 colon) was 29.5 µM, the GI50 (HCT-116 colon) was 1.92 µM and the TGI (HCT-116 colon) was 4.16 µM. It also gave a GI50 (HCT-15 colon) of 1.72 µM, a TGI (HCT-15 colon) of 3.31 µM and a GI50 (HL-60(TB) leukemia) of 2.22 µM. For the same molecule, the TGI (HL-60(TB) leukemia) was 6.31 µM, the GI50 (HOP-62 NSCLC) was 3.41 µM and the TGI (HOP-62 NSCLC) was 9.67 µM. It also gave a GI50 (HOP-92 NSCLC) of 1.84 µM, a TGI (HOP-92 NSCLC) of 3.63 µM and a GI50 (HS 578T breast) of 2.46 µM. The TGI (HS 578T breast) was 9.3 µM, the GI50 (HT29 colon) was 3.66 µM and the TGI (HT29 colon) was 15.2 µM. It also gave a GI50 (IGROV1 ovarian) of 1.55 µM, a TGI (IGROV1 ovarian) of 3.57 µM and a GI50 (K-562 leukemia) of 6.02 µM. It also gave a TGI (K-562 leukemia) greater than 100 µM, a GI50 (KM12 colon) of 6.87 µM and a TGI (KM12 colon) of 33.8 µM. For the same molecule, the GI50 (LOX IMVI melanoma) was 1.49 µM, the TGI (LOX IMVI melanoma) was 3.21 µM and the GI50 (M14 melanoma) was 1.9 µM. For the same molecule, the TGI (M14 melanoma) was 5.02 µM, the GI50 (MALME-3M melanoma) was 1.51 µM and the TGI (MALME-3M melanoma) was 3.24 µM. For the same molecule, the GI50 (MCF7 breast) was 2.72 µM, the TGI (MCF7 breast) was 20 µM and the GI50 (MDA-MB-231 breast) was 1.85 µM. It also gave a TGI (MDA-MB-231 breast) of 3.67 µM, a GI50 (MDA-MB-435) of 1.95 µM and a TGI (MDA-MB-435) of 4.35 µM. For the same molecule, the GI50 (MDA-MB-468 breast) was 1.71 µM, the TGI (MDA-MB-468 breast) was 3.44 µM and the GI50 (MOLT-4 leukemia) was 3.77 µM. For the same molecule, the TGI (MOLT-4 leukemia) was 26.2 µM, the GI50 (NCI-H226 lung) was 1.78 µM and the TGI (NCI-H226 lung) was 4.74 µM. For the same molecule, the GI50 (NCI-H23 lung) was 2.25 µM, the TGI (NCI-H23 lung) was 5.59 µM and the GI50 (NCI-H460 lung) was 2.47 µM. The TGI (NCI-H460 lung) was 9.83 µM, the GI50 (NCI-H522 lung) was 3.62 µM and the TGI (NCI-H522 lung) was 14.5 µM. For the same molecule, the GI50 (OVCAR-3 ovarian) was 2.33 µM, the TGI (OVCAR-3 ovarian) was 7.21 µM and the GI50 (OVCAR-4 ovarian) was 5.93 µM. The TGI (OVCAR-4 ovarian) was 62 µM, the GI50 (OVCAR-5 ovarian) was 2.69 µM and the TGI (OVCAR-5 ovarian) was 7.17 µM. It also gave a GI50 (OVCAR-8 ovarian) of 2.01 µM, a TGI (OVCAR-8 ovarian) of 4.48 µM and a GI50 (PC-3 prostate) of 5.77 µM. The TGI (PC-3 prostate) was 31 µM, the GI50 (RPMI-8226 leukemia) was 18.3 µM and the TGI (RPMI-8226 leukemia) was 86.7 µM. The GI50 (RXF 393 renal) was 2.37 µM, the TGI (RXF 393 renal) was 6.01 µM and the GI50 (SF-268 CNS) was 3.16 µM. The TGI (SF-268 CNS) was 12.2 µM, the GI50 (SF-295 CNS) was 2.04 µM and the TGI (SF-295 CNS) was 4.1 µM. The GI50 (SF-539 CNS) was 1.78 µM, the TGI (SF-539 CNS) was 3.25 µM and the GI50 (SK-MEL-2 melanoma) was 9.03 µM. For the same molecule, the TGI (SK-MEL-2 melanoma) was 47.8 µM, the GI50 (SK-MEL-28 melanoma) was 2.01 µM and the TGI (SK-MEL-28 melanoma) was 5.07 µM. For the same molecule, the GI50 (SK-MEL-5 melanoma) was 1.19 µM, the TGI (SK-MEL-5 melanoma) was 2.78 µM and the GI50 (SK-OV-3 ovarian) was 8.34 µM. It also gave a TGI (SK-OV-3 ovarian) of 31.9 µM, a GI50 (SNB-19 CNS) of 1.86 µM and a TGI (SNB-19 CNS) of 4.08 µM. For the same molecule, the GI50 (SNB-75 CNS) was 1.72 µM, the TGI (SNB-75 CNS) was 5.26 µM and the GI50 (SR leukemia) was 5.35 µM. It also gave a TGI (SR leukemia) greater than 100 µM, a GI50 (SW-620 colon) of 2.41 µM and a TGI (SW-620 colon) of 5.55 µM. It also gave a GI50 (T-47D breast) of 6.48 µM, a TGI (T-47D breast) of 86.6 µM and a GI50 (TK-10 renal) of 2.55 µM. For the same molecule, the TGI (TK-10 renal) was 6.79 µM, the GI50 (U251 CNS) was 2.13 µM and the TGI (U251 CNS) was 5.52 µM. It also gave a GI50 (UACC-257 melanoma) of 3.1 µM, a TGI (UACC-257 melanoma) of 19.9 µM and a GI50 (UACC-62 melanoma) of 1.73 µM. For the same molecule, the TGI (UACC-62 melanoma) was 4.33 µM, the GI50 (UO-31 renal) was 1.3 µM and the TGI (UO-31 renal) was 2.65 µM.
